For assay [1], the system named is human cell lines (A549, ASC, HA1E, HT29, MCF7, PC3, VCAP). Kind of assay: Differential gene expression (QuantSeq RNA sequencing) after bumetanide treatment of cell lines. It is filed as cell-based. The settings on record: 10 uM, 6 or 24 hours, across cell lines. As for the experimental part:
To characterize the cell line invariant mechanism of action, bumetanide was tested across different human cell lines including several cancer cell lines (such as A549, MCF7, PC3, HT29 and VAP) as well as cells from healthy tissues (such as ASC and HA1E). These cell lines (Table 3) were chosen due to their ease of manipulation and suitability for systematic screening. […] Incubation of cell types was performed inside an incubator with a humified atmosphere of 95% and 5% of CO2, and a constant temperature of 37° C. Cells were treated with bumetanide using a dilution of 10 uM for all replicates at a time duration of 6 or 24 hours. [table] Following drug treatment, RNA extracted from each treated cell line was sequenced with QuantSeq with 4-6 million coverage reads per sample in triplicates.

The test system of assay [2] is patients with idiopathic ASD. Kind of assay: Observational clinical pilot study: earlier oral bumetanide treatment of ASD patients. Type of assay: in vivo, human. The following applies: three patients with idiopathic ASD; oral solution 0.5, 1.0 or 2 mg twice daily for three months. On the procedure: The main goal of this pilot study was to validate the clinical benefit of bumetanide in patients showing clinical signs and symptoms characterizing ASD phenotype 3. First, a custom semi-structured online clinical questionnaire (Questionnaire […] 2021) comprising a total of 38 medical examination questions and 73 medical history questions was administered by a clinician during a remote screening visit (over the phone) that took up to 90 min. This remote screening visit included reviewing detailed medical history and clinical signs and symptoms related to ASD phenotype 3 with the patient/caregiver for a clinical validation. […]

The test system of the next assay is ASD patients. The following applies: clinical setting; heterogeneous responses reported; cited from earlier work.

Regarding `CCCCNc1cc(C(=O)O)cc(S(N)(=O)=O)c1Oc1ccccc1` [bumetanide, 3-(butylamino)-4-phenoxy-5-sulfamoylbenzoic acid], in assay [1] (gene GNAS), the “DEG ranking after treatment, GNAS” value was 1 and the “Direction of differential expression, GNAS” value is “DOWN”. In assay [1] (gene KCNJ6), the “DEG ranking after treatment, KCNJ6” value is 19. Further, in assay [1] (gene KCNJ10), the “DEG ranking after treatment, KCNJ10” value was determined as 113. Also, the “DEG ranking after treatment, KCNK3” value in assay [1] (gene KCNK3) amounted to 49. The “DEG ranking after treatment, KCNQ3” value in assay [1] (gene KCNQ3) is 48. In assay [1] (gene KCNV1), the “DEG ranking after treatment, KCNV1” value is given as 165. Moreover, the “DEG ranking after treatment, SLC12A5 (KCC2)” value in assay [1] (gene SLC12A5 (KCC2)) is 35. Besides, in assay [1] (gene SNAP25), the “DEG ranking after treatment, SNAP25” value is on record as 1. Further, the “Clinical response of ASD patients to treatment” value in assay [2] was “shown improvement”.

For `C[S+]([O-])CCCCN=C=S` (centres unmarked) [sulforaphane], the “Effect on behaviour in ASD patients” value in the assay on ASD patients is “improve behaviour in some ASD patients”.

Source of the values: patent US20230134747A1, “COMPOSITIONS FOR THE TREATMENT OF AUTISM SPECTRUM DISORDER” (STALICLA SA, priority 2020, published 2023).
